Reference: patent publication US20010034330A1, “Innate immunity-stimulating compositions of CpG and saponin and methods thereof” (priority 1998, published 2001)

What was measured:
[1] = test system: Listeria monocytogenes strain 10403s; experiment: Listeria monocytogenes challenge model (spleen colony counts); type: in vivo, Balb/c mice; settings: Example 5, FIG. 5; given day 0, i.p. challenge with 10^5 colonies day 3, spleens 96 hours after challenge; versus saline, p<0.05 for the two lowest groups
Procedure: Balb/mice (5 per group, female, 8-10 weeks of age) were administered the following formulations on day 0: Group 1: saline, subcutaneous route. Group 2: 10 ug QS-21 and 10 ug of CpG sequence 1826, subcutaneous route. Group 3: 10 ug QS-21, subcutaneous route. Group 4: 10 ug CpG sequence 1826, subcutaneous route. Group 5: 0.5 ug recombinant murine IL-12, intraperitoneal route. A total volume of 0.2 ml was administered. On day 3, mice were challenged by the intraperitoneal route with 10^5 colonies of Listeria monocytogenes strain 10403s. Spleens were removed at 96 hours after challenge, homogenized, and then cultured in serial 10-fold dilutions overnight on agar plates. Listeria monocytogenes colonies were counted, the number of organisms per spleen determined, and then the geometric mean and standard error were determined for each group. A two-tailed, paired student's t-test of the log10 colonies/spleen was used to show statistical significance.

YAC-1 cells = experiment: Natural killer cell activity: 51Cr release lysis of YAC-1 target cells by splenocytes of treated mice; type: in vivo, Balb/c mice; settings: for NK cell response (lysis of YAC-1 cells): Example 1, FIG. 1, 10 ug each, subcutaneous, days 1 and 2; for NK cell response (lysis of YAC-1 cells) / NK activity, dose response: splenocytes day 3; for NK cell activity compared with QS-7 at an equivalent dose / NK activity, dose response: Example 3, FIG. 3, 3, 10, 30 ug s.c. day 1 and day 2
Procedure: Assessment of natural killer cell activity was carried out by an adaptation of a published method (Hashimoto et al., J. Immunol. 163: 583 (1999)). Balb/c mice (4 per group, female, 8-10 weeks of age) were administered one of five different candidate compositions at days 1 and 2. The compositions evaluated were (1) saline (negative control), (2) 10 ug QS-21, (3) 10 ug CpG (sequence 1826), (4) 0.5 ug murine IL-12 (positive control for NK cell activation), and (5) a combination of 10 ug QS-21 and 10 ug CpG in 0.2 ml saline. All test compositions were administered subcutaneously except for murine IL-12, which was administered intraperitoneally. Splenocytes were removed from the mice at day 3 for use as effector cells in the natural killer cell assay. Such cells were immediately used in a standard ^51Cr release lysis assay. YAC-1 cells (loaded with ^51Cr) were used as target cells. The lysis of this NK cell-sensitive line is indicative of NK cell activation in the splenocyte population.
The time dependence of the administration of CpG/QS-21 on natural killer cell activation was investigated. Balb/c mice (5 per group, female, 8-10 weeks of age) were administered a mixture of 10 ug QS-21 and 10 ug CpG sequence 1826 in a total volume of 0.2 ml by subcutaneous route seven days before (−7d), three days before (−3d), two days before (−2d), and one day before (−1d) assay of natural killer cell activity. Splenocytes were removed from the mice at day 0 for use as effector cells in the natural killer cell assay. YAC-1 cells (loaded with ^51Cr) were used as target cells. Natural killer cell lysis was apparent if the formulation of QS-21/CpG was administered one, two, or three days prior to the assay, but not if the formulation was administered seven days prior to the assay (FIG. 2). This confirms the transient nature of the natural killer cell activity.
Balb/c mice (5 per group, female, 8-10 weeks of age) were administered individually QS-7, QS-21, or CpG sequence 1826 at three different dose levels (3, 10, 30 ug) to determine a dose response curve for these individual compounds. The compositions evaluated were (1) saline (negative control), (2) 3 ug QS-21, (3) 10 ug QS-21, (4) 30 ug QS-21, (5) 3 ug QS-7(6) 10 ug QS-7, (7) 30 ug QS-7, (8) 3 ug sequence CpG 1826, (9) 10 ug CpG sequence 1826, and (10) 30 ug CpG sequence 1826. All test compositions were administered subcutaneously at day 1 and day 2. Splenocytes were removed from the mice at day 3 for use as effector cells in the natural killer cell assay. YAC-1 cells (loaded with ^51Cr) were used as target cells.
This experiment evaluated the natural killer cell stimulating activity induced by various formulations: (1) QS-21 (10 ug), (2) QS-7 (10 ug), (3) CpG sequence 1826 (10 ug), (4) CpG sequence 2006 (10 ug), (5) QS-21 (10 ug)+CpG sequence 1826 (10 ug), (6) QS-21 (10 ug)+CpG 2006 (10 ug), (7) QS-7 (10 ug)+CpG sequence 1826 ( […]), (8) QS-7 (10 ug) +CpG sequence 2006 (10 ug), (9) QS-7 (10 ug) and QS-21 (10 ug) and (10) saline. Balb/c mice (5 per group, female, 8-10 weeks of age) were administered the above formulations by subcutaneous route on day 1 and day 2. Splenocytes were removed from the mice at day 3 for use as effector cells in the natural killer cell assay. YAC-1 cells (loaded with ^51Cr) were used as target cells.

Substance | Listeria monocytogenes colony count in spleen [1] | NK cell response (lysis of YAC-1 cells) (YAC-1 cells) | NK cell activity compared with QS-7 at an equivalent dose (YAC-1 cells) | NK activity, dose response (YAC-1 cells)
QS-21 | lowest colony counts | higher than CpG and that was nearly equivalent to the positive control, murine IL-12 | higher than that induced by QS-7 | enhance NK activity in a dose dependent fashion
TCCATGACGTTCCTGACGTT [CpG sequence 1826] |  | slightly enhanced the NK cell activity | higher than that induced by QS-7 | enhance NK activity in a dose dependent fashion
